Laboratory results published in PubChem BioAssay (NCI).
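Compound exposure: 48 hours, 5 concentrations, 96-well plates. GI50 is the concentration that inhibits growth by half. TGI is the concentration that stops growth completely.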

Tests used:
Assay in all cases: growth of human tumour cells (NCI), 48 h
786-0 renal = test system: 786-0 renal
A498 renal = test system: A498 renal
A549 NSCLC = test system: A549 NSCLC
ACHN renal = test system: ACHN renal
BT-549 breast = test system: BT-549 breast
CAKI-1 renal = test system: CAKI-1 renal
CCRF-CEM leukemia = test system: CCRF-CEM leukemia
COLO 205 colon = test system: COLO 205 colon
DU-145 prostate = test system: DU-145 prostate
EKVX NSCLC = test system: EKVX NSCLC
HCT-116 colon = test system: HCT-116 colon
HCT-15 colon = test system: HCT-15 colon
HL-60(TB) leukemia = test system: HL-60(TB) leukemia
HOP-62 NSCLC = test system: HOP-62 NSCLC
HOP-92 NSCLC = test system: HOP-92 NSCLC
HS 578T breast = test system: HS 578T breast
HT29 colon = test system: HT29 colon
IGROV1 ovarian = test system: IGROV1 ovarian
K-562 leukemia = test system: K-562 leukemia
KM12 colon = test system: KM12 colon
LOX IMVI melanoma = test system: LOX IMVI melanoma
M14 melanoma = test system: M14 melanoma
MALME-3M melanoma = test system: MALME-3M melanoma
MCF7 breast = test system: MCF7 breast
MDA-MB-231 breast = test system: MDA-MB-231 breast
MDA-MB-435 = test system: MDA-MB-435
MOLT-4 leukemia = test system: MOLT-4 leukemia
NCI-H226 lung = test system: NCI-H226 lung
NCI-H23 lung = test system: NCI-H23 lung
NCI-H460 lung = test system: NCI-H460 lung
NCI-H522 lung = test system: NCI-H522 lung
NCI/ADR-RES ovarian = test system: NCI/ADR-RES ovarian
OVCAR-3 ovarian = test system: OVCAR-3 ovarian
OVCAR-4 ovarian = test system: OVCAR-4 ovarian
OVCAR-5 ovarian = test system: OVCAR-5 ovarian
OVCAR-8 ovarian = test system: OVCAR-8 ovarian
PC-3 prostate = test system: PC-3 prostate
RPMI-8226 leukemia = test system: RPMI-8226 leukemia
RXF 393 renal = test system: RXF 393 renal
SF-268 CNS = test system: SF-268 CNS
SF-295 CNS = test system: SF-295 CNS
SF-539 CNS = test system: SF-539 CNS
SK-MEL-2 melanoma = test system: SK-MEL-2 melanoma
SK-MEL-28 melanoma = test system: SK-MEL-28 melanoma
SK-MEL-5 melanoma = test system: SK-MEL-5 melanoma
SK-OV-3 ovarian = test system: SK-OV-3 ovarian
SN12C renal = test system: SN12C renal
SNB-19 CNS = test system: SNB-19 CNS
SNB-75 CNS = test system: SNB-75 CNS
SR leukemia = test system: SR leukemia
SW-620 colon = test system: SW-620 colon
T-47D breast = test system: T-47D breast
TK-10 renal = test system: TK-10 renal
U251 CNS = test system: U251 CNS
UACC-257 melanoma = test system: UACC-257 melanoma
UACC-62 melanoma = test system: UACC-62 melanoma
UO-31 renal = test system: UO-31 renal

For `C[C@@H](NC(=O)Cc1cc(F)cc(F)c1)C(=O)N[C@@]1(C)N=C(c2ccccc2)c2ccccc2N(C)C1=O`, the GI50 (786-0 renal) was > 100 µM, the TGI (786-0 renal) was > 100 µM and the GI50 (A498 renal) was 1.13 µM. For the same compound, the TGI (A498 renal) was 42.6 µM, the GI50 (A549 NSCLC) was 66.1 µM and the TGI (A549 NSCLC) was > 100 µM. The GI50 (ACHN renal) was > 84.5 µM, the TGI (ACHN renal) was > 100 µM and the GI50 (BT-549 breast) was 9.6 µM. The TGI (BT-549 breast) was > 66.4 µM, the GI50 (CAKI-1 renal) was 11.7 µM and the TGI (CAKI-1 renal) was > 56.8 µM. The GI50 (CCRF-CEM leukemia) was 24.6 µM, the TGI (CCRF-CEM leukemia) was > 100 µM and the GI50 (COLO 205 colon) was 47.2 µM. For the same compound, the TGI (COLO 205 colon) was > 100 µM, the GI50 (DU-145 prostate) was 30.2 µM and the TGI (DU-145 prostate) was > 100 µM. The GI50 (EKVX NSCLC) was 30.2 µM, the TGI (EKVX NSCLC) was > 85.8 µM and the GI50 (HCT-116 colon) was 32.2 µM. The TGI (HCT-116 colon) was > 100 µM, the GI50 (HCT-15 colon) was > 78.1 µM and the TGI (HCT-15 colon) was > 100 µM. The GI50 (HL-60(TB) leukemia) was 10.6 µM, the TGI (HL-60(TB) leukemia) was > 55.4 µM and the GI50 (HOP-62 NSCLC) was 64.7 µM. The TGI (HOP-62 NSCLC) was > 100 µM, the GI50 (HOP-92 NSCLC) was 19.8 µM and the TGI (HOP-92 NSCLC) was > 67.7 µM. For the same compound, the GI50 (HS 578T breast) was 24.7 µM, the TGI (HS 578T breast) was > 100 µM and the GI50 (HT29 colon) was 49.4 µM. The TGI (HT29 colon) was > 100 µM, the GI50 (IGROV1 ovarian) was > 65.6 µM and the TGI (IGROV1 ovarian) was > 100 µM. The GI50 (K-562 leukemia) was 32.6 µM, the TGI (K-562 leukemia) was > 94.1 µM and the GI50 (KM12 colon) was 41.3 µM. The TGI (KM12 colon) was > 100 µM, the GI50 (LOX IMVI melanoma) was 45.7 µM and the TGI (LOX IMVI melanoma) was > 100 µM. The GI50 (M14 melanoma) was 26 µM, the TGI (M14 melanoma) was > 86.6 µM and the GI50 (MALME-3M melanoma) was > 60.8 µM. The TGI (MALME-3M melanoma) was > 100 µM, the GI50 (MCF7 breast) was 36.5 µM and the TGI (MCF7 breast) was > 100 µM. The GI50 (MDA-MB-231 breast) was 15.9 µM, the TGI (MDA-MB-231 breast) was > 96.6 µM and the GI50 (MDA-MB-435) was 38.9 µM. For the same compound, the TGI (MDA-MB-435) was > 100 µM, the GI50 (MOLT-4 leukemia) was 11.7 µM and the TGI (MOLT-4 leukemia) was 50.1 µM. It also gave a GI50 (NCI-H226 lung) of 24 µM, a TGI (NCI-H226 lung) of 71.9 µM and a GI50 (NCI-H23 lung) of 43.4 µM. The TGI (NCI-H23 lung) was > 100 µM, the GI50 (NCI-H460 lung) was 40.4 µM and the TGI (NCI-H460 lung) was > 100 µM. The GI50 (NCI-H522 lung) was 69.2 µM, the TGI (NCI-H522 lung) was > 100 µM and the GI50 (NCI/ADR-RES ovarian) was 31.9 µM. The TGI (NCI/ADR-RES ovarian) was > 90.7 µM, the GI50 (OVCAR-3 ovarian) was 30 µM and the TGI (OVCAR-3 ovarian) was > 100 µM. For the same compound, the GI50 (OVCAR-4 ovarian) was > 100 µM, the TGI (OVCAR-4 ovarian) was > 100 µM and the GI50 (OVCAR-5 ovarian) was > 83.5 µM. For the same compound, the TGI (OVCAR-5 ovarian) was > 100 µM, the GI50 (OVCAR-8 ovarian) was 65.1 µM and the TGI (OVCAR-8 ovarian) was > 100 µM. For the same compound, the GI50 (PC-3 prostate) was 25.6 µM, the TGI (PC-3 prostate) was > 100 µM and the GI50 (RPMI-8226 leukemia) was 2.11 µM. For the same compound, the TGI (RPMI-8226 leukemia) was 10.5 µM, the GI50 (RXF 393 renal) was 30.7 µM and the TGI (RXF 393 renal) was > 100 µM. The GI50 (SF-268 CNS) was 30.9 µM, the TGI (SF-268 CNS) was > 100 µM and the GI50 (SF-295 CNS) was 42.8 µM. For the same compound, the TGI (SF-295 CNS) was > 100 µM, the GI50 (SF-539 CNS) was > 56 µM and the TGI (SF-539 CNS) was > 100 µM. For the same compound, the GI50 (SK-MEL-2 melanoma) was > 100 µM, the TGI (SK-MEL-2 melanoma) was > 100 µM and the GI50 (SK-MEL-28 melanoma) was > 100 µM. The TGI (SK-MEL-28 melanoma) was > 100 µM, the GI50 (SK-MEL-5 melanoma) was 35.2 µM and the TGI (SK-MEL-5 melanoma) was > 100 µM. For the same compound, the GI50 (SK-OV-3 ovarian) was > 100 µM, the TGI (SK-OV-3 ovarian) was > 100 µM and the GI50 (SN12C renal) was 32 µM. The TGI (SN12C renal) was 97.5 µM, the GI50 (SNB-19 CNS) was > 100 µM and the TGI (SNB-19 CNS) was > 100 µM. For the same compound, the GI50 (SNB-75 CNS) was > 95.3 µM, the TGI (SNB-75 CNS) was > 100 µM and the GI50 (SR leukemia) was 2.5 µM. The TGI (SR leukemia) was > 22.7 µM, the GI50 (SW-620 colon) was 94.4 µM and the TGI (SW-620 colon) was > 100 µM. The TGI (T-47D breast) was > 66.6 µM, the GI50 (TK-10 renal) was 31.2 µM and the TGI (TK-10 renal) was > 88.8 µM. The GI50 (U251 CNS) was > 84.8 µM, the TGI (U251 CNS) was > 100 µM and the GI50 (UACC-257 melanoma) was 37.5 µM. The TGI (UACC-257 melanoma) was > 100 µM, the GI50 (UACC-62 melanoma) was 32.4 µM and the TGI (UACC-62 melanoma) was > 89 µM. For the same compound, the GI50 (UO-31 renal) was 30.5 µM and the TGI (UO-31 renal) was > 100 µM.
